Assay results reported in ChEMBL document CHEMBL3994622, “Design and synthesis of new RAF kinase-inhibiting antiproliferative quinoline derivatives. Part 2: Diarylurea derivatives” (Eur J Med Chem, 2017).

Legend:
Type in all cases: functional
RPMI-8226 = experiment: Growth inhibition of human RPMI8226 cells assessed as cell growth at 10 uM incubated for 48 hrs by sulforhodamine B assay relative to control; conditions: RPMI-8226, 48 h, read-out: Activity
A549 = experiment: Growth inhibition of human A549/ATCC cells assessed as cell growth at 10 uM incubated for 48 hrs by sulforhodamine B assay relative to control; conditions: A549, 48 h, read-out: Activity
EKVX = experiment: Growth inhibition of human EKVX cells assessed as cell growth at 10 uM incubated for 48 hrs by sulforhodamine B assay relative to control; conditions: read-out: Activity
NCI-H460 = experiment: Growth inhibition of human NCI-H460 cells assessed as cell growth at 10 uM incubated for 48 hrs by sulforhodamine B assay relative to control; conditions: NCI-H460, 48 h, read-out: Activity
NCI-H522 = experiment: Growth inhibition of human NCI-H522 cells assessed as cell growth at 10 uM incubated for 48 hrs by sulforhodamine B assay relative to control; conditions: NCI-H522, 48 h, read-out: Activity
COLO 205 = experiment: Growth inhibition of human COLO205 cells assessed as cell growth at 10 uM incubated for 48 hrs by sulforhodamine B assay relative to control; conditions: COLO 205, 48 h, read-out: Activity
HCC 2998 = experiment: Growth inhibition of human HCC2998 cells assessed as cell growth at 10 uM incubated for 48 hrs by sulforhodamine B assay relative to control; conditions: HCC 2998, 48 h, read-out: Activity
SW-620 = experiment: Growth inhibition of human SW620 cells assessed as cell growth at 10 uM incubated for 48 hrs by sulforhodamine B assay relative to control; conditions: SW-620, 48 h, read-out: Activity
SNB-19 = experiment: Growth inhibition of human SNB19 cells assessed as cell growth at 10 uM incubated for 48 hrs by sulforhodamine B assay relative to control; conditions: SNB-19, 48 h, read-out: Activity
LOX IMVI = experiment: Growth inhibition of human LOXIMVI cells assessed as cell growth at 10 uM incubated for 48 hrs by sulforhodamine B assay relative to control; conditions: read-out: Activity
SK-MEL-2 = experiment: Growth inhibition of human SK-MEL-2 cells assessed as cell growth at 10 uM incubated for 48 hrs by sulforhodamine B assay relative to control; conditions: SK-MEL-2, 48 h, read-out: Activity
SK-MEL-5 = experiment: Growth inhibition of human SK-MEL-5 cells assessed as cell growth at 10 uM incubated for 48 hrs by sulforhodamine B assay relative to control; conditions: SK-MEL-5, 48 h, read-out: Activity
IGROV-1 = experiment: Growth inhibition of human IGROV1 cells assessed as cell growth at 10 uM incubated for 48 hrs by sulforhodamine B assay relative to control; conditions: IGROV-1, 48 h, read-out: Activity
OVCAR-3 = experiment: Growth inhibition of human OVCAR3 cells assessed as cell growth at 10 uM incubated for 48 hrs by sulforhodamine B assay relative to control; conditions: OVCAR-3, 48 h, read-out: Activity
OVCAR-5 = experiment: Growth inhibition of human OVCAR5 cells assessed as cell growth at 10 uM incubated for 48 hrs by sulforhodamine B assay relative to control; conditions: OVCAR-5, 48 h, read-out: Activity
NCI/ADR-RES = experiment: Growth inhibition of human NCI/ADR-RES cells assessed as cell growth at 10 uM incubated for 48 hrs by sulforhodamine B assay relative to control; conditions: read-out: Activity
SK-OV-3 = experiment: Growth inhibition of human SKOV3 cells assessed as cell growth at 10 uM incubated for 48 hrs by sulforhodamine B assay relative to control; conditions: SK-OV-3, 48 h, read-out: Activity
A498 = experiment: Growth inhibition of human A498 cells assessed as cell growth at 10 uM incubated for 48 hrs by sulforhodamine B assay relative to control; conditions: A498, 48 h, read-out: Activity
ACHN = experiment: Growth inhibition of human ACHN cells assessed as cell growth at 10 uM incubated for 48 hrs by sulforhodamine B assay relative to control; conditions: read-out: Activity
CAKI-1 [1] = experiment: Growth inhibition of human Caki1 cells assessed as cell growth at 10 uM incubated for 48 hrs by sulforhodamine B assay relative to control; conditions: CAKI-1, 48 h, read-out: Activity
RXF 393 = experiment: Growth inhibition of human RXF393 cells assessed as cell growth at 10 uM incubated for 48 hrs by sulforhodamine B assay relative to control; conditions: RXF 393, 48 h, read-out: Activity
MCF7 [2] = experiment: Growth inhibition of human MCF7 cells assessed as cell growth at 10 uM incubated for 48 hrs by sulforhodamine B assay relative to control; conditions: MCF7, 48 h, read-out: Activity
MDA-MB-231 [3] = experiment: Growth inhibition of human MDA-MB-231 cells assessed as cell growth at 10 uM incubated for 48 hrs by sulforhodamine B assay relative to control; conditions: MDA-MB-231, 48 h, read-out: Activity
BT-549 = experiment: Growth inhibition of human BT549 cells assessed as cell growth at 10 uM incubated for 48 hrs by sulforhodamine B assay relative to control; conditions: BT-549, 48 h, read-out: Activity
T47D [4] = experiment: Growth inhibition of human T47D cells assessed as cell growth at 10 uM incubated for 48 hrs by sulforhodamine B assay relative to control; conditions: read-out: Activity
HOP-62 = experiment: Growth inhibition of human HOP62 cells incubated for 48 hrs by sulforhodamine B assay; conditions: HOP-62, 48 h
HCT-15 = experiment: Growth inhibition of human HCT15 cells incubated for 48 hrs by sulforhodamine B assay; conditions: HCT-15, 48 h
SF-268 = experiment: Growth inhibition of human SF268 cells incubated for 48 hrs by sulforhodamine B assay; conditions: SF-268, 48 h
CAKI-1 [5] = experiment: Growth inhibition of human Caki1 cells incubated for 48 hrs by sulforhodamine B assay; conditions: CAKI-1, 48 h
MCF7 [6] = experiment: Growth inhibition of human MCF7 cells incubated for 48 hrs by sulforhodamine B assay; conditions: MCF7, 48 h
MDA-MB-231 [7] = experiment: Growth inhibition of human MDA-MB-231 cells incubated for 48 hrs by sulforhodamine B assay; conditions: MDA-MB-231, 48 h
T47D [8] = experiment: Growth inhibition of human T47D cells incubated for 48 hrs by sulforhodamine B assay
[9] = read-out: LC50 (the source's name)

COc1cc2cc(Oc3ccc(NC(=O)Nc4ccc(C(F)(F)F)cc4)cc3)c(C)nc2cc1OC
growth at 10 µM (RPMI-8226): 52.7%
growth at 10 µM (A549): 32.4%
growth at 10 µM (EKVX): 75.7%
growth at 10 µM (NCI-H460): 42.8%
growth at 10 µM (NCI-H522): 63.2%
growth at 10 µM (COLO 205): 40.4%
growth at 10 µM (HCC 2998): 94.8%
growth at 10 µM (SW-620): 75.3%
growth at 10 µM (SNB-19): 93.5%
growth at 10 µM (LOX IMVI): 56.4%
growth at 10 µM (SK-MEL-2): 76.7%
growth at 10 µM (SK-MEL-5): 47.4%
growth at 10 µM (IGROV-1): 71.9%
growth at 10 µM (OVCAR-3): 67%
growth at 10 µM (OVCAR-5): 92.9%
growth at 10 µM (NCI/ADR-RES): 64.1%
growth at 10 µM (SK-OV-3): 38.8%
growth at 10 µM (A498): 90.5%
growth at 10 µM (ACHN): 56.1%
growth at 10 µM (CAKI-1 [1]): 70.4%
growth at 10 µM (RXF 393): 6.29%
growth at 10 µM (MCF7 [2]): 84.3%
growth at 10 µM (MDA-MB-231 [3]): 80.9%
growth at 10 µM (BT-549): 113%
growth at 10 µM (T47D [4]): 57.5%

COc1cc2cc(Oc3ccc(NC(=O)Nc4ccc(C)cc4)cc3)c(C)nc2cc1OC
growth at 10 µM (RPMI-8226): 101%
growth at 10 µM (A549): 102%
growth at 10 µM (EKVX): 107%
growth at 10 µM (NCI-H460): 108%
growth at 10 µM (NCI-H522): 69.9%
growth at 10 µM (COLO 205): 111%
growth at 10 µM (HCC 2998): 104%
growth at 10 µM (SW-620): 107%
growth at 10 µM (SNB-19): 97.1%
growth at 10 µM (LOX IMVI): 102%
growth at 10 µM (SK-MEL-2): 91.5%
growth at 10 µM (SK-MEL-5): 100%
growth at 10 µM (IGROV-1): 101%
growth at 10 µM (OVCAR-3): 113%
growth at 10 µM (OVCAR-5): 110%
growth at 10 µM (NCI/ADR-RES): 107%
growth at 10 µM (SK-OV-3): 87.8%
growth at 10 µM (A498): 116%
growth at 10 µM (ACHN): 103%
growth at 10 µM (CAKI-1 [1]): 98.2%
growth at 10 µM (RXF 393): 82.1%
growth at 10 µM (MCF7 [2]): 94.5%
growth at 10 µM (MDA-MB-231 [3]): 85.6%
growth at 10 µM (BT-549): 130%
growth at 10 µM (T47D [4]): 101%

Cc1nc2cc(O)c(O)cc2cc1Oc1ccc(NC(=O)Nc2ccc(Cl)c(Cl)c2)cc1
growth at 10 µM (RPMI-8226): 75.7%
growth at 10 µM (A549): 50.5%
growth at 10 µM (EKVX): 98.5%
growth at 10 µM (NCI-H460): 62.1%
growth at 10 µM (NCI-H522): 1.87%
growth at 10 µM (COLO 205): 34.7%
growth at 10 µM (HCC 2998): 93.4%
growth at 10 µM (SW-620): 49.3%
growth at 10 µM (SNB-19): 49%
growth at 10 µM (LOX IMVI): 0.46%
growth at 10 µM (SK-MEL-2): 77.7%
growth at 10 µM (SK-MEL-5): -42.2%
growth at 10 µM (IGROV-1): 67.1%
growth at 10 µM (OVCAR-3): 67.9%
growth at 10 µM (OVCAR-5): 122%
growth at 10 µM (NCI/ADR-RES): 59%
growth at 10 µM (SK-OV-3): 45%
growth at 10 µM (A498): 118%
growth at 10 µM (ACHN): 39%
growth at 10 µM (CAKI-1 [1]): 27.3%
growth at 10 µM (RXF 393): 20.4%
growth at 10 µM (MCF7 [2]): 76.2%
growth at 10 µM (MDA-MB-231 [3]): 45%
growth at 10 µM (BT-549): 82.2%
growth at 10 µM (T47D [4]): 62.2%
GI50 (HOP-62): 8.62 µM
TGI (HOP-62): > 32.5 µM
CC50 (HOP-62; [9]): > 32.5 µM
GI50 (HCT-15): 5.47 µM
LC50 (lethal concentration, 50% net cell kill) (HCT-15): > 32.5 µM
TGI (HCT-15): > 32.5 µM
GI50 (SF-268): 8.45 µM
LC50 (50% lethal concentration) (SF-268): > 32.5 µM
TGI (SF-268): > 32.5 µM
GI50 (CAKI-1 [5]): 4.96 µM
TGI (CAKI-1 [5]): 30 µM
CC50 (CAKI-1 [5]; [9]): > 32.5 µM
GI50 (MCF7 [6]): 8.7 µM
TGI (MCF7 [6]): > 32.5 µM
CC50 (MCF7 [6]; [9]): > 32.5 µM
GI50 (MDA-MB-231 [7]): 2.49 µM
TGI (MDA-MB-231 [7]): > 32.5 µM
CC50 (MDA-MB-231 [7]; [9]): > 32.5 µM
GI50 (T47D [8]): 11.6 µM
TGI (T47D [8]): > 32.5 µM
CC50 (T47D [8]; [9]): > 32.5 µM
